Measured values from patent US11083735B2, “Methods for treating sleep disorders, sleep disturbances, and related symptoms using aminosterol compositions” (Enterin, Inc., priority 2017, dated 2021).

How the values were obtained:
Solubility in water = format: physicochemical
[1] = tested on: patients with PD and constipation; assay: Phase 2 trial Stage 2: adverse events; conditions: for Common adverse events by dose: Dizziness: lightheadedness included
Method: In Stage 2, 34 patients were evaluated. […] This dose was then maintained (“fixed dose”) for an additional 3-5 days. After the “fixed dose”, these patients were randomly assigned to either continued treatment at that dose or to a matching placebo, for an additional 4-6 days prior to a 2-week wash-out.
A second cohort of 19 patients received squalamine (ENT-01) escalating from 100 mg/day to a maximum of 250 mg/day without subsequent randomization to squalamine (ENT-01) or placebo. Criteria for dose selection and efficacy were identical to those used in the previous cohort.
Adverse events were coded using the current version of MedDRA. Severity of AEs were assessed by investigators according to CTCAE (v4.03): Grade 1 is labeled as Mild, Grade 2 as Moderate, and Grade 3 and above as Severe. […] The number (percentage) of subjects who experienced an AE during escalation and fixed dosing periods were summarized by dose level and overall for each stage. The denominator for calculating the percentages were based on the number of subjects ever exposed to each dose and overall.

[2] = tested on: patients with PD and constipation; assay: Phase 2 trial: adverse events, all dosed patients (Stage 1 and 2); format: in vivo, human
Method: Safety and Adverse Event (AE) Profile: Fifty patients were enrolled and 44 were dosed. In Stage 1, 10 patients were dosed, 1 (10%) withdrew prior to completion and 9 (90%) completed dosing. In stage 2, 6 (15%) patients had ≥3 CSBM/week at the end of the run-in period and were excluded, 34 patients were dosed and bowel response was assessable in 31 (91%). Two patients (5.8%) were terminated prior to completion because of recurrent dizziness, and 3 others withdrew during dosing (8.8%): 2 because of diarrhea and 1 because of holiday. Fifteen patients were randomized.
Most AEs were confined to the GI tract (88% in Stage 1 and 63% in Stage 2). The most common AE was nausea which occurred in 4/10 (40%) patients in Stage 1 and in 18/34 (52.9%) in Stage 2 (Table 6). Diarrhea occurred in 4/10 (40%) patients in Stage 1 and 15/34 (44%) in Stage 2. One patient withdrew because of recurrent diarrhea. Other GI related AEs included abdominal pain 11/44 […], flatulence 3/44 (6.8%), vomiting 3/44 (6.8%), worsening of acid reflux 2/44 (4.5%), and worsening of hemorrhoids 1/44 (2.2%). […] The only other noteworthy AE was dizziness 8/44 (18%). Dizziness was graded as moderate in one patient who was receiving an alpha-adrenergic blocking agent (Terazosin). This patient was withdrawn from the study and recovered spontaneously.

[3] = tested on: patients with PD and constipation; assay: Phase 2 trial Stage 1 (single escalating dose): prokinetic response (CSBM within 24 hours); format: in vivo, human
Method: FIGS. 16A-16B show prokinetic activity of squalamine (ENT-01, a synthetic squalamine salt comprising squalamine as the active ion). […] Patients with baseline CSBM<1 required a higher dose (mean, 192 mg) of squalamine than patients with CSBM≥1 (mean, 120 mg).
Tolerability limits included diarrhea or vomiting.

vagal afferent fibers = assay: Multiunit firing of a jejunal branch of the vagus (mesenteric nerve); parameters: species or system mouse; conditions: luminal squalamine
Method: Squalamine was applied into the lumen by gravity feed 11 min after beginning the recording. […] The Control represents background discharge before applying squalamine, and the Peak gives the average firing frequency during a 3 min period at the peak of the response.
To determine whether the electrical activity stimulated by the luminal application of squalamine was principally contained within the ENS of the intestine, or whether it communicated information rostrally to the CNS, a further experiment was designed in which multiunit fiber firing rates were measured from a single jejunal branch of the vagus. Squalamine was introduced 11 minutes after recordings were begun. Vagal afferent firing frequency increased almost immediately thereafter to 3 fold the initial rate within a few minutes.

Structure (SMILES): CC(C)[C@@H](CC[C@@H](C)[C@H]1CC[C@H]2[C@@H]3[C@H](O)C[C@H]4C[C@@H](NCCCNCCCCN)CC[C@]4(C)[C@H]3CC[C@]12C)OS(=O)(=O)O (single isomer, unassigned; ent-01) [ENT-01]
- solubility in water (Solubility in water; neutral pH): weakly soluble
- solubility in water (Solubility in water; pH<3.5 (the pH of gastric fluid)): readily dissolves
- AEs confined to the GI tract ([1]; Stage 2): 63%
- Diarrhea, patients ([1]; Stage 2, 15/34): 44%
- nausea, patients ([1]; Stage 2, 18/34): 52.9%
- Abdominal pain, Mild ([1]; Stage 2, 34 dosed): 4(11.7) n, %
- Abdominal pain, Moderate ([1]; Stage 2, 34 dosed): 2(5.8) n, %
- Blood in urine, Mild ([1]; Stage 2, 34 dosed): 0 n, %
- Blood in urine, Moderate ([1]; Stage 2, 34 dosed): 0 n, %
- Diarrhea, Mild ([1]; Stage 2, 34 dosed): 12(35) n, %
- Diarrhea, Moderate ([1]; Stage 2, 34 dosed): 2(5.8) n, %
- Diarrhea, Severe ([1]; Stage 2, 34 dosed): 1(2.9) n, %
- Difficulty falling asleep, Mild ([1]; Stage 2, 34 dosed): 1(3) n, %
- Difficulty falling asleep, Moderate ([1]; Stage 2, 34 dosed): 0 n, %
- Dizziness, Mild ([1]; Stage 2, 34 dosed): 7(20.5) n, %
- Dizziness, Moderate ([1]; Stage 2, 34 dosed): 1(2.9) n, %
- Flatulence, Mild ([1]; Stage 2, 34 dosed): 1(3) n, %
- Flatulence, Moderate ([1]; Stage 2, 34 dosed): 0 n, %
- Headache, Mild ([1]; Stage 2, 34 dosed): 3(8.8) n, %
- Headache, Moderate ([1]; Stage 2, 34 dosed): 0 n, %
- Increased urinary frequency, Mild ([1]; Stage 2, 34 dosed): 2(5.8) n, %
- Increased urinary frequency, Moderate ([1]; Stage 2, 34 dosed): 0 n, %
- Loss of appetite, Mild ([1]; Stage 2, 34 dosed): 0 n, %
- Loss of appetite, Moderate ([1]; Stage 2, 34 dosed): 0 n, %
- Nausea, Mild ([1]; Stage 2, 34 dosed): 18(52) n, %
- Nausea, Moderate ([1]; Stage 2, 34 dosed): 1(2.9) n, %
- Skin lesions-rash, Mild ([1]; Stage 2, 34 dosed): 3(8.8) n, %
- Skin lesions-rash, Moderate ([1]; Stage 2, 34 dosed): 0 n, %
- Urinary retention, Mild ([1]; Stage 2, 34 dosed): 1(3) n, %
- Urinary retention, Moderate ([1]; Stage 2, 34 dosed): 0 n, %
- Vomiting, Mild ([1]; Stage 2, 34 dosed): 2(5.8) n, %
- Vomiting, Moderate ([1]; Stage 2, 34 dosed): 0 n, %
- Worsening acid reflux, Mild ([1]; Stage 2, 34 dosed): 4(11.7) n, %
- Worsening acid reflux, Moderate ([1]; Stage 2, 34 dosed): 0 n, %
- Worsening hemorrhoid, Mild ([1]; Stage 2, 34 dosed): 1(3) n, %
- Worsening hemorrhoid, Moderate ([1]; Stage 2, 34 dosed): 0 n, %
- Common adverse events by dose: Diarrhea ([1]; Stage 2, dose 75 mg): 7
- Common adverse events by dose: Nausea ([1]; Stage 2, dose 75 mg): 3
- Common adverse events by dose: Dizziness ([1]; Stage 2, dose 75 mg): 8
- Common adverse events by dose: Diarrhea ([1]; Stage 2, dose 100 mg): 10
- Common adverse events by dose: Nausea ([1]; Stage 2, dose 100 mg): 12
- Common adverse events by dose: Dizziness ([1]; Stage 2, dose 100 mg): 7
- Common adverse events by dose: Diarrhea ([1]; Stage 2, dose 125 mg): 3
- Common adverse events by dose: Nausea ([1]; Stage 2, dose 125 mg): 4
- Common adverse events by dose: Dizziness ([1]; Stage 2, dose 125 mg): 8
- Common adverse events by dose: Diarrhea ([1]; Stage 2, dose 150 mg): 2
- Common adverse events by dose: Nausea ([1]; Stage 2, dose 150 mg): 11
- Common adverse events by dose: Dizziness ([1]; Stage 2, dose 150 mg): 2
- Common adverse events by dose: Diarrhea ([1]; Stage 2, dose 175 mg): 1
- Common adverse events by dose: Nausea ([1]; Stage 2, dose 175 mg): 12
- Common adverse events by dose: Dizziness ([1]; Stage 2, dose 175 mg): 0
- Common adverse events by dose: Diarrhea ([1]; Stage 2, dose 200 mg): 2
- Common adverse events by dose: Nausea ([1]; Stage 2, dose 200 mg): 6
- Common adverse events by dose: Diarrhea ([1]; Stage 2, dose 225 mg): 3
- Common adverse events by dose: Nausea ([1]; Stage 2, dose 225 mg): 1
- Common adverse events by dose: Diarrhea ([1]; Stage 2, dose 250 mg): 2
- Lower GI bleed, Severe ([1]; Stage 2, Unrelated to ENT-01 (diverticulosis, polyp, aspirin, Plavix, naproxen)): 1(2.5) n, %
- worsening of hemorrhoids ([2]; 1/44): 2.2%
- worsening of acid reflux ([2]; 2/44): 4.5%
- flatulence ([2]; 3/44): 6.8%
- vomiting ([2]; 3/44): 6.8%
- dizziness ([2]; 8/44): 18%
- abdominal pain ([2]; 11/44): 32%
- cumulative response rate ([3]; 25 mg): 25%
- cumulative response rate ([3]; 200 mg (maximum)): 80%

Structure (SMILES): CC(C)[C@@H](CC[C@@H](C)[C@H]1CC[C@H]2[C@@H]3[C@H](O)C[C@H]4C[C@@H](NCCCNCCCCN)CC[C@]4(C)[C@H]3CC[C@]12C)OS(=O)(=O)O [squalamine]
- persistence of increased firing rate (vagal afferent fibers): at least 20 minutes
- vagal afferent firing frequency relative to the initial rate (vagal afferent fibers; within a few minutes): 3 fold
